One block for each molecule: values may come before it.
Experiments:
[1] = 19F PFG NMR diffusion in ionic liquid; type: physicochemical; settings: in N-methyl-N,N,N-trioctylammonium bis-triflylamide
Text: Another use of ionic liquids for photoamplified bioanalytical methods is for electrochemical detection. […] Unmasking of the sensitizer dramatically changes the redox properties of the system which can be utilized in electrochemical detection of photoamplification. Again, as mentioned above, ionic liquids can be gelated and used in a form of pixilated bioanalytical array. […] The ^19F PFG NMR measurements of diffusion of 4-(trifluoromethyl)benzophenone in N-methyl-N,N,N-trioctylammonium bis-triflylamide produced the translational diffusion coefficient of 9×10^−7 cm^2 s^−1, which is still adequate for bimolecular collisional quenching of triplet benzophenone, necessary for the photoamplification. N-Methyl-N,N,N-trioctylammonium bis-triflylamide is the most viscous ionic liquid which we tested in our experiments. Other, much less viscous ionic liquids, for example N,N-dimethyl-N,N-dihexylammonium bis-triflylamide, performed even better.

[2] = Pulse Field Gradient 19F NMR diffusion in N-n-octadecylurea organogels made in t-butyl benzene; type: physicochemical
Text: The PFG NMR experiments allow for measuring diffusion coefficients of molecules of interest in complex mixtures, including gels. The successful photoamplification relies on adequate diffusion coefficients. The diffusion coefficients obtained for 4-trifluoromethylbenzophenone in gelated tert-butylbenzene and other solvents were within 10-15% of that in free (not gelated) solvents, which means that the gelation has no detrimental effect on photochemistry.

[3] = Stern-Volmer fluorescence quenching of p-terphenyl; type: physicochemical; set-up: unit not given here; settings: p-terphenyl 10^−5 M
Text: p-Oligophenylenes are known as durable fluorophores, and commonly used as a dye in dye lasers due to their resistance to photobleaching, a desirable characteristic for this application.

[4] = in non-polar solvents; cited from earlier work
[5] = Stern-Volmer fluorescence quenching of fluorene; type: physicochemical; set-up: unit not given here; settings: fluorene 10^−5 M, in CH2Cl2
[6] = near diffusion controlled; previously shown; cited from earlier work

Compound: c1ccc2c(c1)Cc1ccccc1-2 [Fluorene]
fluorescence lifetime [4]: 10 ns

Compound: CC1(C(O)(c2ccccc2)c2ccccc2)SCCCS1 [MDT BP adduct, 2-methyl-1,3-dithiane benzophenone adduct]
Ksv, fluorescence quenching of fluorene [5]: 2300 | rate of quenching of benzophenone triplet via electron transfer reduction [6]: 10^9 M^−1 s^−1 | Ksv, fluorescence quenching of p-terphenyl ([3]; in CH2Cl2): 80 | Ksv, fluorescence quenching of p-terphenyl ([3]; in t-BuPh): 40

Next, values leading:

translational diffusion coefficient [1]: 9×10^−7 cm^2 s^−1 | Diffusion Coefficient ([2]; 0 % N-n-Octadecylurea, t-butyl benzene): 6.50 × 10^−6 cm^2 s^−1 | Diffusion Coefficient ([2]; 2 % N-n-Octadecylurea, t-butyl benzene organogel): 5.32 × 10^−6 cm^2 s^−1 | Diffusion Coefficient ([2]; 4 % N-n-Octadecylurea, t-butyl benzene organogel): 5.60 × 10^−6 cm^2 s^−1 | Diffusion Coefficient ([2]; 6 % N-n-Octadecylurea, t-butyl benzene organogel): 5.34 × 10^−6 cm^2 s^−1 | Difference of diffusion coefficient in gelated solvent from that in free (not gelated) solvent ([2]; gelated tert-butylbenzene and other solvents): 10-15%
Compound: O=C(c1ccccc1)c1ccc(C(F)(F)F)cc1 [4-trifluoromethyl-benzophenone, 4-trifluoromethylbenzophenone]

Ksv, fluorescence quenching of p-terphenyl ([3]; in CH2Cl2): smaller than for MDT BP adduct
Compound: CC1SCCCS1 [dithiane, 2-methyl-1,3-dithiane]

Ksv, fluorescence quenching of p-terphenyl ([3]; in CH2Cl2): smaller than for MDT BP adduct
Compound: OC(c1ccccc1)c1ccccc1 [benzhydrol]
